From publication PMC5450158 (European journal of pharmaceutical sciences : official …, 2017)
Where two headings read alike, the source gives them in different places.

Key:
MRP3 (ABCC3) [1] = target: T1, MRP3 (ABCC3) (Homo sapiens, UniProt O15438); assay: inhibition of ATP-dependent [3H]-E217G uptake, membrane vesicles; settings: 10 μM E217G, 5 min, 37 °C, 100 μM compound, value is remaining uptake
MRP3 (ABCC3) [2] = target: T1, MRP3 (ABCC3); assay: as above; format: biochemical

T1 sequence (O15438 whole entry): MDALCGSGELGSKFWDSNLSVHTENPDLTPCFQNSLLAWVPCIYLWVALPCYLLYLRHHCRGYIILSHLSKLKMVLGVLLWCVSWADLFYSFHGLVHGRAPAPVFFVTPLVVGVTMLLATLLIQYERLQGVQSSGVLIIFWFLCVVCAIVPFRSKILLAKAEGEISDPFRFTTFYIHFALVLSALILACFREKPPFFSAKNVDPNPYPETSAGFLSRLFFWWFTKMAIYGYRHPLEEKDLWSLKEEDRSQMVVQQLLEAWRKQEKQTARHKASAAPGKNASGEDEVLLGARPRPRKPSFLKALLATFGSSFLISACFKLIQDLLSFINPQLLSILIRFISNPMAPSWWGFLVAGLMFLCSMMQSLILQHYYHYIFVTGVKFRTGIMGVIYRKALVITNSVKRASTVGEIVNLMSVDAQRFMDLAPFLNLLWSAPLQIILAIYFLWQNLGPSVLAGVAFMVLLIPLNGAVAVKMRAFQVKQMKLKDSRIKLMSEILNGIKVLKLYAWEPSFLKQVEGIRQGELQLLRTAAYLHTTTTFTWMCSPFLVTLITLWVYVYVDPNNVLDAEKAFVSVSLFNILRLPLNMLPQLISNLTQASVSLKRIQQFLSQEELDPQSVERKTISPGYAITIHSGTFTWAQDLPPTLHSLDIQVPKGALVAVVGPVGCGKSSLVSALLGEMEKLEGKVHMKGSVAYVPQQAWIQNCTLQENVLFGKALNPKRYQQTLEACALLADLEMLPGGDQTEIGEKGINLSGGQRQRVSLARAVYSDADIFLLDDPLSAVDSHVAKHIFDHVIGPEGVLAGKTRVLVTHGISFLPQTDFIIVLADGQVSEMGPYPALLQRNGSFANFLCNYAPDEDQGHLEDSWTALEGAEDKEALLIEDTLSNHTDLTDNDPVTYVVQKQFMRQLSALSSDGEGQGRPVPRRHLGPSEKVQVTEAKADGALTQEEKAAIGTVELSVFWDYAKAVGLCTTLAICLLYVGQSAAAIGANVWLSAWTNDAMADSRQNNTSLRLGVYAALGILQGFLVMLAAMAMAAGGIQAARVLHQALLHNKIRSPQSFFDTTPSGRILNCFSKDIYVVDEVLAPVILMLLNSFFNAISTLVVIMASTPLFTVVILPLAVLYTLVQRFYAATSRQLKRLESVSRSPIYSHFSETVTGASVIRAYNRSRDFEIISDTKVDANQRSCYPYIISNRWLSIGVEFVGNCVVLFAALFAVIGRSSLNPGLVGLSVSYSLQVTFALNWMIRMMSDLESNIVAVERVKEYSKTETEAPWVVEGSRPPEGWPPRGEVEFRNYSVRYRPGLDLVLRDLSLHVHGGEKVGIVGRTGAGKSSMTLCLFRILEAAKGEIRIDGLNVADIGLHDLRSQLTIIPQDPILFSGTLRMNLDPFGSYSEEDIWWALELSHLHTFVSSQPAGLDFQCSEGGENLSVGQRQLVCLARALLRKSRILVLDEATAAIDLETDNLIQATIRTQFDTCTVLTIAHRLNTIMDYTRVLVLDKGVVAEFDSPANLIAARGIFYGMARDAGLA

Row | SMILES | E217G uptake, % of control at 100 μM (MRP3 (ABCC3) [1]) [%] | also measured
1 | CCOC(=O)C1=C(C)NC(C)=C(C(=O)OC)C1c1cccc(Cl)c1Cl (stereo not drawn) [felodipine] | 45.8 | –
2 | COC(=O)N[C@H](C(=O)N[C@@H](Cc1ccccc1)[C@@H](O)CN(Cc1ccc(-c2ccccn2)cc1)NC(=O)[C@@H](NC(=O)OC)C(C)(C)C)C(C)(C)C [atazanavir] | 55.0 | –
3 | CCCCc1oc2ccc(NS(C)(=O)=O)cc2c1C(=O)c1ccc(OCCCN(CCCC)CCCC)cc1 [dronedarone] | – | IC50 (MRP3 (ABCC3) [2]): 47.4 ± 4.41 µM
4 | Cc1ccc(C(=O)Nc2ccc(S(=O)(=O)O)c3cc(S(=O)(=O)O)cc(S(=O)(=O)O)c23)cc1NC(=O)c1cccc(NC(=O)Nc2cccc(C(=O)Nc3cc(C(=O)Nc4ccc(S(=O)(=O)O)c5cc(S(=O)(=O)O)cc(S(=O)(=O)O)c45)ccc3C)c2)c1 [suramin] | – | IC50 (MRP3 (ABCC3) [2]): 3.33 ± 0.41 µM
5 | CCc1c(Cl)c(O)c(Cl)c(O)c1C(=O)O[C@H]1[C@H](O)[C@H](OC)[C@H](OC/C2=C\C=C\C[C@H](O)/C(C)=C/[C@H](CC)[C@@H](O[C@@H]3OC(C)(C)[C@@H](OC(=O)C(C)C)[C@H](O)[C@@H]3O)/C(C)=C/C(C)=C/C[C@@H]([C@@H](C)O)OC2=O)O[C@@H]1C [fidaxomicin] | – | IC50 (MRP3 (ABCC3) [2]; 10 μM E217G, ATP, 5 min, 37 °C, 0.1-100 μM inhibitor): 1.83 ± 0.46 µM
6 | NS(=O)(=O)c1cc2c(cc1Cl)NC=NS2(=O)=O [Chlorothiazide] | 37.4 | –
7 | OCCN(CCO)c1nc(N2CCCCC2)c2nc(N(CCO)CCO)nc(N3CCCCC3)c2n1 [dipyridamole] | 52.1 | –

Now from value to compound, other results behind:

Row | E217G uptake, % of control at 100 μM (MRP3 (ABCC3) [1]) [%] | SMILES | also measured
8 | 63.5 | CC[C@H](C)C(=O)O[C@H]1C[C@@H](C)C=C2C=C[C@H](C)[C@H](CC[C@@H]3C[C@@H](O)CC(=O)O3)[C@H]21 [lovastatin] | –
9 | 69.5 | CNC(=O)c1cc(Oc2ccc(NC(=O)Nc3ccc(Cl)c(C(F)(F)F)c3)c(F)c2)ccn1 [regorafenib] | –
